Test results taken from patent US7250551B2, “Transgenic mice expressing inducible human p25” (President and Fellows of Harvard College, priority 2002, dated 2007).

Experiments:
[1] = system: T668 phosphorylation on APP; test: Ionomycin-induced T668 phosphorylation of APP in primary hippocampal neurons, Western blot; format: cell-based, rat; conditions: for T668 phosphorylation induced by ionomycin: 20 μM inhibitor 15 min before 4 μM ionomycin for 5 hours
Protocol: Primary hippocampal neurons were cultured as described from E18 rat embryos (Niethammer et al. (2000) Neuron 28:697). 8-day old cultures were treated with different concentrations of ionomycin (Calbiochem). In some cases, hippocampal neurons were incubated with either 20 μM roscovitine (Calbiochem) or 20 μM butyrolactone (Calbiochem) for 15 min at 37° C. before being treated with 4 μM ionomycin for 5 hours. Neurons were lysed in SDS sample buffer and lysates were separated on a 12% acrylamide gel and analyzed by Western blotting.
To determine if neurotoxic conditions influence APP phosphorylation, primary hippocampal neurons were treated with ionomycin.

[2] = system: secreted Aβ(1-40) and Aβ(1-42); test: Aβ secreted by rat primary cortical neurons infected with HSV expressing WT APP, sandwich ELISA; format: cell-based; conditions: rat cortical neurons expressing WT APP via HSV, inhibitor 8 hours, dose-dependent, P<0.05
rat cortical neurons = test: MTT cell viability of rat cortical neurons expressing WT APP; format: cell-based; conditions: rat cortical neurons expressing WT APP via HSV
[3] = system: T668 phosphorylation of APP; test: T668 phosphorylation of full length APP in HSV-APP infected rat cortical neurons, Western blot; conditions: rat cortical neurons expressing WT APP via HSV, inhibitor 8 hours
[4] = system: secreted Aβ(1-40) and Aβ(1-42); test: Aβ secreted into media by primary neurons from APP(Sw) Tg mice, sandwich ELISA; format: cell-based, mouse; conditions: roscovitine 8 hours
Protocol: FIGS. 7A-7F depict that inhibition of Cdk5 reduces Aβ generation in a Tg mouse model of AD. (A) Inhibition of Cdk5 lead to a decrease in Aβ secretion. Primary mixed hippocampal and cortical neurons were cultured from E17 APP (Swedish) (Sw) Tg mice. 4-day-cultured neurons were treated with the indicated concentration of roscovitine for 8 hours and assayed for the level of Aβ(1-40) secreted into the media. The level of secreted Aβ(1-40) was normalized against the untreated control. The data are the averages (±s.d.) from four independent experiments. (B) As in (A), but the level of Aβ(1-42) in the media was assayed instead. (C) Cell viability was measured using the MTT assay. Cell viability was normalized against the untreated control. […] (F) Cell viability was measured using the MTT assay.
Primary cortical neurons were cultured from E15 APP(Sw) Tg mice (Tg2576) (Hsiao et al. (1996) Science 274:99) as described (Niethammer et al. (2000) Neuron 28:697). […] Aβ secreted into the media from each culture was analyzed by sandwich ELISA (Biosource) according to specifications by the manufacturer. Cell viability was measured by treating neurons with MTT (Sigma) at a final concentration of 0.5 mg/ml for 1 hour. After MTT treatment, cell medium was replaced with DMSO and the optical density of at 495 nm was determined.

[5] = system: primary neurons from APP(Sw) Tg mice; test: MTT cell viability of primary neurons from APP(Sw) Tg mice; format: cell-based, mouse; conditions: roscovitine 8 hours
Protocol: Primary cortical neurons were cultured from E15 APP(Sw) Tg mice (Tg2576) (Hsiao et al. (1996) Science 274:99) as described (Niethammer et al. (2000) Neuron 28:697). 4-day-cultured neurons were replaced with new media (DMEM/F 12) and treated with different concentrations of roscovitine (Calbiochem) for 8 hours, or with butyrolactone (Calbiochem) for 16 hours. Aβ secreted into the media from each culture was analyzed by sandwich ELISA (Biosource) according to specifications by the manufacturer. Cell viability was measured by treating neurons with MTT (Sigma) at a final concentration of 0.5 mg/ml for 1 hour. After MTT treatment, cell medium was replaced with DMSO and the optical density of at 495 nm was determined.

[6] = system: APP subcellular distribution; test: Distribution of WT APP in iodixanol step gradient of primary cortical neuron homogenates; format: cell-based, rat; conditions: roscovitine 15 μM for 8 hr (FIG. 18D)
Text: FIGS. 18A-18D depict co-fractionation of T668 phosphorylated APP with BACE1 and endosome markers. (A) Adult mouse brain lysate was fractionated through an iodixanol step gradient. […] (B) Quantification of protein distribution of A (fractions 1-20) showing that full length P-APP co-fractionates with BACE1. (C) Distribution of WT and T668A APP, expressed in rat primary cortical neurons using recombinant herpes simplex virus (HSV), in an iodixanol step gradient. The distribution pattern of BACE1 resembled that of WT APP. (D) Distribution of WT APP in an iodixanol step gradient after roscovitine treatment (15 μM for 8 hr).
FIGS. 25A-25B depict immunoblots showing distribution of APP and BACE1 in iodixanol step gradient. […] Twenty hours post infection, cell homogenates were fractionated through an iodixanol step gradient and the distributions of APP and BACE1 were analyzed. […] Cell homogenates were fractionated and the distributions of APP and BACE1 were analyzed by Western blot analysis.
To assess the significance of T668 phosphorylation in APP subcellular localization, WT APP and the T668A mutant APP were introduced into primary cortical neurons using recombinant herpes simplex virus (HSV). Twenty hours post infection, cell homogenates were fractionated through iodixanol step gradient and the distribution of APP in the collected fractions was analyzed. […]

Row | SMILES | T668 phosphorylation on APP ([1]; primary hippocampal neurons treated with ionomycin) | T668 phosphorylation induced by ionomycin [1] | levels of secreted Aβ(1-40) [2] | levels of secreted Aβ(1-42) [2] | cell viability, MTT assay (rat cortical neurons) | T668 phosphorylation [3] | secreted beta-amyloid (1-40) (Aβ(1-40)) levels [4] | secreted beta-amyloid (1-42) (Aβ(1-42)) levels [4] | cell viability, MTT assay [5] | APP distribution in iodixanol step gradient [6]
1 | C[C@H](CCC(=O)O)C[C@H](C)C[C@H](C)C(=O)/C=C(\O)[C@H](C)C[C@H](C)C/C=C/[C@@H](C)[C@@H](O)[C@@H](C)[C@@H](O)C[C@@H]1CC[C@@](C)([C@H]2CC[C@@](C)([C@@H](C)O)O2)O1 [Ionomycin, ionomycin] | marked elevation | – | – | – | – | – | – | – | – | –
2 | O=C1CCCO1 [butyrolactone] | – | inhibited | significantly reduced | significantly reduced | not due to a decline in cell viability | substantial decreases | – | – | – | –
3 | CC[C@H](CO)Nc1nc(NCc2ccccc2)c2ncn(C(C)C)c2n1 [roscovitine] | – | inhibited | significantly reduced | significantly reduced | not due to a decline in cell viability | substantial decreases | dose-dependent decrease | also reduced | not due to a decline in cell viability | shifted to heavier membrane fractions
